# Data published in article PMC11065314, “Identification of compounds that cause axonal dieback without cytotoxicity in dorsal root ganglia explants and intervertebral disc cells with potential to treat pain via denervation” (PLOS ONE, 2024).
# Where “and” joins values, the source holds several entries; their conditions need not be identical. Equal entries are not always repeated. Structures can show the parent of a compound that is named as a salt.
# Assays:
# [1] = test system: adult rat DRG explants; format: cell-based
# [2] = DRG cytotoxicity assessment using LDH assay; format: cell-based, rat; details: female, rat, rat dorsal root ganglion (DRG) explants, female rat DRG explant, single well
# Method: (§1) 500 nM Imy and 10 nM Vcr were excluded from female rat DRG experiments while 500 nM Vcr and 1 mM Pyr were excluded from male rat DRG experiments due to insufficient DRG replicates with axon outgrowth. DRG media was removed from wells and transferred into a 96-well plate for pre-treat LDH cytotoxicity assay (see Methods below). 300 μL of media treatment solutions or solvent control solutions were added to wells. DRGs were incubated with treatment solutions for three days, and brightfield images at 4X magnification were taken using BioTek Cytation1 Plate Imager (Agilent) before treatment (day -1) and on days 1, 2 and 3 after treatment. DRGs from adult male and female rats were tested to determine if sex can affect axonal dieback. In total, 12 to 15 DRG replicates per group by sex harvested from n = 3 male and n = 3 female rats were tested.
# (§2) Lactate dehydrogenase (LDH) is a cytosolic enzyme present in all cells. Dissociated rat DRG neurons release LDH during tunicamycin-induced apoptosis. […] An ideal axonal dieback compound should cause axonal degeneration without neurotoxicity. was assessed on day 3 post-treat and normalized to pre-treat levels to account for variability in DRG size and growth and calculated as a percentage of cytotoxicity to lysed DRGs (positive control). 50 μL of pre-treatment and post-treatment media were aliquoted in duplicates into a 96-well plate. LDH activity in the media post-treat was assessed using the CyQUANT^TM LDH Cytotoxicity Assay Kit (Thermo Fisher Scientific, C20301) according to the manufacturer’s instructions. Briefly, 50 μL of Substrate Mix was added to each well and then incubated at room temperature for 30 minutes protected from light. 50 μL of Stop solution was added to each well and the absorbance at 490 nm and 680 nm was measured using a microplate reader (Agilent). LDH activity of each DRG was calculated as the difference between absorbance at 490 nm after subtracting the background absorbance at 680 nm. As a positive control, 13 female rat DRGs and 15 male rat DRGs were treated for three days with Lysis buffer solution, provided in the kit, diluted 1:5.45 in DRG media. The percentage of cytotoxicity was calculated following Eq 2. Pre-treat levels of LDH activity were subtracted from post-treat LDH activity in each DRG to remove baseline LDH activity then percentage of cytotoxicity compared to positive control lysed DRG LDH activity was calculated. Sex is a biological factor that can influence neurotoxicity. Thus, percentage of cytotoxicity of total 11 to 14 DRG replicates per group by sex from n = 3 male and n = 3 female rats were tested.
# (§3) Cytotoxicity(%)=(PosttreatLDHactivity)−(PretreatLDHactivity)/(MaximumLDHactivityfromlysedDRGs)−(PretreatLDHactivity)×100% (2)
# [3] = test system: rat DRG explants; experiment: DRG cytotoxicity assessment using LDH assay; format: cell-based; details: for Cytotoxicity (%): single well; for Overall cytotoxicity lower compared to lysed DRGs: all concentrations tested, day 3
# Method: as §1, §2, §3
# [4] = test system: sciatic nerves; parameters: method as in PMID 3126271; details: applied onto sciatic nerves; cited from earlier work
# [5] = test system: dissociated neonatal DRG neurons; parameters: method as in PMID 7617165; details: 30 μM, within 24 hours; cited from earlier work
# [6] = parameters: method as in PMID 30888737; details: intraarticular injection; cited from earlier work
# [7] = Quantification of viable NP cells (LIVE/DEAD staining); format: cell-based, human; details: both sexes, human; 500 μM, 1 mM and 2 mM, day 3 post-treatment, either donor; read-out: Percentage of viable cells
# Method: (§4) Nucleus pulposus (NP) cells are native matrix-producing cells at the core of intervertebral discs. To repurpose axonal dieback compounds to denervate aberrant nerve fibers in discs related to chronic LBP, the cytocompatibility of these compounds with NP cells must be evaluated. Human NP cells (Sciencell, 4800) from donor 1 (Lot #5954) and donor 2 (Lot# 21579) were cultured according to previously established protocol in our lab adapted from manufacturer’s instructions. Briefly, passage three cells from both donors were expanded in Poly-L-lysine (PLL) (Sciencell, 413) coated T75 flasks. Cells were then lifted and reseeded at 5,000 cells/cm^2 onto two PLL-coated 48-well plates (Greiner Bio-One, 677180) and allowed to attach overnight before treating with Pyr or Vcr. One plate was used for LIVE/DEAD staining and the other plate was used for AlamarBlue assay as described below. Complete NP cell media (Sciencell, 4801) containing basal media supplemented with 1% penicillin-streptomycin, 1% growth supplement and 2% FBS were used for maintaining cells in culture. To mimic the hypoxic disc environment, NP cells were cultured in a hypoxia chamber (Stem Cell Technologies, 27310) with 5% CO2, 3.5% O2, 91.5% N2 (Airgas) during the entire culture and treatment incubation period.
# (§5) Pyr stock solution was diluted in complete NP media to achieve final concentrations of 500 μM, 1 mM and 2 mM Pyr. 16.9 μg/mL and 169 μg/mL Vcr stock solutions were prepared in 1X PBS then diluted in complete NP media to achieve final concentrations of 10, 25, 50, 100 nM and 200, 500 nM, respectively. Cells were incubated with 250 μL of final treatment solutions in duplicate wells per donor for three days. Cells in negative control group were incubated with 250 μL of complete NP media with 0.55% v/v 1X PBS as solvent control. On day 3 post-treatment, brightfield images at 4X magnification were taken using a BioTek Cytation1 Plate Imager (Agilent) to verify cell proliferation and observe cell morphology. Three experimental replicates were performed for each cell donor.
# (§6) On day 3 of incubation with drug, media treatment solutions were removed from each well and cells were carefully rinsed with 200 μL of sterile 1X PBS to remove excess media. NP cells were stained with 150 μL of 2 μM Calcein AM and 6 μM EtHD-1 solution from LIVE/DEAD Viability/Cytotoxicity Kit (Thermo Fisher Scientific, L3224) for 30 minutes at room temperature protected from light. After staining, cells were gently rinsed with 200 μL sterile 1X PBS to remove excess staining solution. Excitation and emission wavelengths for live cell fluorescence is 495 and 515 nm and dead cell fluorescence is 495 and 635 nm. Using a BioTek Cytation1 Plate Imager (Agilent), GFP filter cube (Agilent, 1225101, ex: 451.5–486.5 nm, em: 505.5–544.5 nm) and RFP filter cubes (Agilent, 1225103, ex: 511-551nm, em: 573–613 nm), fluorescent images at 4X magnification of four regions per well were taken. Gen5 v3.11 software (Agilent) was used to count green (live) and orange (dead) cells in fluorescent images. Dead NP cell staining was verified and evident by positive EtHD-1 orange staining in kill control wells where cells were treated with 70% EtOH for 10 minutes (S4 Fig). Percentage of live cells were calculated by calculating the percentage of live cells over total cell counts as shown in Eq 3.
# (§7) Cellviability(%)=Livecellcounts/Livecellcounts+Deadcellcounts×100% (3)
# [8] = test system: Human NP cells; experiment: as above; format: cell-based
# Method: as §4, §5, §6, §7
# [9] = test system: Human NP cells; experiment: NP cell metabolic activity (AlamarBlue reduction); format: cell-based;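 as to AB reduction per cell (%): percent AlamarBlue reduction per manufacturer divided by estimated total cells per well from LIVE/DEAD counts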
# Method: as §4, §5
# On day 3 of incubation with drugs, 25 μL (10% v/v of media volume) of AlamarBlue HS cell viability reagent (Thermo Fisher Scientific, A50100) were added into each well. Cells were incubated with the AlamarBlue reagent for 2 hours at 37°C under hypoxia then 60 μL aliquots of cell media were removed in duplicates into a 96-well plate. The absorbance at 570 and 600 nm were read using a microplate reader (Agilent) and calculations for AlamarBlue reduction were calculated according to the manufacturer’s protocol. To account for different cell confluency between donors and groups, AlamarBlue reduction was normalized to estimated total number of cells per well obtained from LIVE/DEAD staining. Cellular metabolic activity in treated groups was reported as a ratio of normalized AlamarBlue reduction to PBS control group.
# [10] = 500 µM, donor 1, day 3, single wells (Exp, Rep)
# [11] = 500 µM, donor 2, day 3, single wells (Exp, Rep)
# [12] = 1 mM, donor 1, day 3, single wells (Exp, Rep)
# [13] = 1 mM, donor 2, day 3, single wells (Exp, Rep)
# [14] = 2 mM, donor 1, day 3, single wells (Exp, Rep)
compound,measurement,setting,value
"C[C@H](CCC(=O)O)C[C@H](C)C[C@H](C)C(=O)/C=C(\O)[C@H](C)C[C@H](C)C/C=C/[C@@H](C)[C@@H](O)[C@@H](C)[C@@H](O)C[C@@H]1CC[C@@](C)([C@H]2CC[C@@](C)([C@@H](C)O)O2)O1 [Imy, Ionomycin]",Change in axon length ratio between timepoints,[1],no significant differences were observed between timepoints
same,Decrease in axon length,[1],10%
same,Median axon length ratio (interquartile range),[1],0.977 (0.852–1.004) and 0.9 (0.75–0.985) and 0.982 (0.854–1.121)
same,"cytotoxicity at 3 days, 0.77 µM",[2]; 0.77 µM,8.76%
same,Cytotoxicity (%),"[3]; 0.77 µM, female rat DRG explant",6.379% and 11.5202%
same,Overall cytotoxicity lower compared to lysed DRGs,[3],at least 88%
same,Fibers exhibiting large nerve lesions,[4],up to 95%
"COc1cc(CNC(=O)CCCC/C=C/C(C)C)ccc1O [Caps, capsaicin]",Median axon length ratio (interquartile range),[1],0.657 (0.359–0.750) and 0.453 (0.270–0.624)
same,Percentage of cytotoxicity lower than in lysed DRGs,"[3]; 3.79 mM, 3-day incubation",90.2%
same,Cytotoxicity (%),"[3]; 3.79 mM, male rat DRG explant",16.4427%
same,Overall cytotoxicity lower compared to lysed DRGs,[3],at least 88%
same,Cell death,[5],induced significant cell death
same,Duration of alleviation of knee pain,[6],about 18 weeks
"Cc1ncc(CO)c(CO)c1O [Pyr, Pyridoxine hydrochloride]",Axonal dieback over time and against solvent control,[1],did not induce significant axonal dieback
same,Day on which Caps axon length ratio threshold (0.45) was met,[1],≤ 2 days
same,Median axon length ratio (interquartile range),[1],0.607 (0.418–0.875) and 0.539 (0.317–0.676) and 0.451 (0.347–0.587)
same,"cytotoxicity at 3 days, 500 µM",[2]; 500 µM,5.33%
same,"cytotoxicity at 3 days, 1 mM",[2]; 1 mM,3.24%
same,Cytotoxicity (%),"[3]; 50 µM, female rat DRG explant",1.523% and -1.428% and 2.095%
same,Cytotoxicity (%),"[3]; 500 µM, female rat DRG explant",8.854% and 7.426%
same,Cytotoxicity (%),"[3]; 1 mM, female rat DRG explant",4.951% and 3.523%
same,viability at 3 days,[7],> 89%
same,Percent live (%),[8]; [10],99.8382% and 99.8845% and 99.1403% and 98.8605% and 99.9471% and 98.2749%
same,Percent live (%),[8]; [11],97.5506% and 96.954% and 96.3405% and 99.1395% and 96.5794% and 98.8823%
same,Percent live (%),[8]; [12],99.8893% and 99.7678% and 99.8269% and 99.7809%
same,Percent live (%),[8]; [13],96.1436% and 95.9726% and 96.9575% and 96.5249%
same,Percent live (%),[8]; [14],98.6699% and 99.5161% and 83.5317% and 86.125% and 97.6421% and 98.8217%
same,AlamarBlue reduction normalized to cell counts compared to PBS control,"[9]; 500 μM, 1 mM and 2 mM, day 3",not significantly different between PBS control and all treated groups
same,AB reduction per cell (%),[9]; [10],0.001757% and 0.001402% and 0.001221% and 0.001189% and 0.001666% and 0.001549%
same,AB reduction per cell (%),[9]; [11],0.002098% and 0.001803% and 0.002358% and 0.001696% and 0.002473% and 0.003239%
same,AB reduction per cell (%),[9]; [12],0.001279% and 0.001156% and 0.001657% and 0.001546%
same,AB reduction per cell (%),[9]; [13],0.001937% and 0.002155% and 0.002387% and 0.003301%
same,AB reduction per cell (%),[9]; [14],0.002206% and 0.002078% and 0.002787% and 0.003671% and 0.002259% and 0.001426%
same,AB reduction per cell (%),"[9]; 2 mM, donor 2, day 3, single wells (Exp, Rep)",0.00138% and 0.001132% and 0.01401% and 0.003735% and 0.006792% and 0.003692%
